# Tests used:
# WM35 cells = test: Nuclear condensation / ethidium homodimer and Syto16 staining, WM35; type: cell-based
# Experimental: (§1) Two cell lines, WM35 and HS294T, were plated out (50,000 cells per well, 24 well plate) and allowed to adhere. After 24 hours, the cells were treated for 4 hours with varying concentrations (5-80 μM) of Cisplatin (cis-platinum (II) diammine dichloride), a well-known chemotherapeutic agent that induces apoptosis. […] Adherent cell populations were then lifted from the solid support by trypsinization, centrifuged (400× g), and resuspended in PBS (0.125 ml). To observe the nuclear morphology and percent cell death in the WM35 and HS294T cell lines, cells from both floater and adherent populations were stained concurrently with Syto16 and ethidium homodimer (125 ul of cell suspension+2.5 ul 62.5uM Sytol6+[…] 10 ug/ml ethidium homodimer, 10 minutes at 37° C.). Ethidium homodimer is a membrane impermeant compound that fluoresces in the 617 nm range when it is intercalated with chromosomal DNA. Thus, in a mixed cell population containing both living and dead/dying cells, only those cells whose membranes have been compromised will stain with ethidium homodimer. In contrast, Syto 16 (Molecular Probes) is a membrane permeant dye that fluoresces in the 518 nm range when associated with chromosomal DNA. Together, these two dyes can be used to observe and distinguish the nuclear morphology in a population containing both living and dead/dying cells.
# WM35 (melanoma) cells = test: Caspase-3 fluorescent substrate (Rhodamine 123-YVAD) and PI staining of WM35 floaters; type: cell-based; settings: Cisplatin 15 μg/ml, floaters collected 18-24 hours after induction
# Experimental: WM35 cells were passed one day prior to induction of apoptosis and incubated for 24 hrs to allow the cells to attach to the substrate. The media was subsequently removed, the remaining adherent cells washed 1× with PBS, and subsequently exposed to Cisplatin (15 μg/ml) in fresh media. Eighteen to twenty-four hours after the induction of apoptosis, the floater cell population was collected, pelleted by centrifugation (400× g), and resuspended at 3×10^6 cells/ml in PBS. Samples were then split into four groups: (I) uninduced minus Rhodamine 123-YVAD (substrate), (2) uninduced plus substrate, (3) induced minus substrate, and (4) induced plus substrate. For samples exposed to Rhodamine 123-YVAD substrate, 50 ul of a pre-warmed (37° C.) cell suspension was combined with 25 ul of a stock substrate solution (Celiprobe). Samples were incubated for 60 minutes at 37° C. and then placed on ice prior to FACS analysis. In addition to caspase-3 staining, a replicate of each sample was stained with propidium iodide to determine the percentage of cells within the population whose membranes had been compromised and the overlap between PI and caspase-3 staining. […] Emission spectra were read at 515-535 nm wavelength using the FLI (PMT2) 525 nm blue filter.
# HS294T cells = test: Nuclear condensation / ethidium homodimer and Syto16 staining, HS294T; type: cell-based
# Experimental: as §1
# T47D cells = test: Camptothecin kill curve in T47D cells; type: cell-based
# Experimental: Approximately 250,000 cells were seeded into each well of a six well plate. Cells were then grown in media containing camptothecin of varying concentrations (0-10 uM). After 5 days, the number of cells remaining in each of the camptothecin-treated wells was compared with untreated controls. From these experiments, it was determined that camptothecin concentrations ranging from 1-4 nM had no effect on T47D cell number over the course of the 5 days of treatment. […] In order to determine whether this level of treatment is concomitantly increasing the number of floaters in the population, several flasks are seeded with T47D cells and then treated with 1-4 nM concentrations of camptothecin. After a period of three to five days, the media is collected and the number of floater cells are counted and compared to the total number of cells in the flask (floaters+adherents).
# [1] = test system: ECR293 cells containing pBIGFII and ecdysone receptor (pVgRXR); test: Ecdysone-inducible pBIGFII vector fluorescence in ECR293 cells; type: cell-based; settings: 5 μM ponesterone A
# Excerpt: As an alternative to the constitutive pCLMFG vector, an inducible construct that can be regulated by ecdysone was constructed as follows. The PmlI/XhoI fragment from pVT324 was inserted into the MCS of the PIND vector (Invitrogen). This product was then digested with BglII, blunt-ended and inserted into a pBabe-K-ras vector (pVT313-based) that had been digested with BamHI/XhoI and blunted (Klenow Fragment). The resulting vector was designated pBabe-Forward-1. The XbaI fragment of pVT324 was then inserted into the compatible site of pBabe-Forward-1. The resulting vector was designated pBIGFII. Vector pBIGFII was subsequently transfected into cells (ECR293, Invitrogen) that contain an endogenous copy of the ecdysone receptor (pVgRXR).
# HuVEC 9F0293 cells = test: Time course of detachment and PI staining of HuVEC 9F0293; type: cell-based, Human; settings: puromycin 2 ug/ml
# Experimental: To determine the time course in which dead and/or dying HuVECs detach from the solid support in response to a cytotoxic agent, 9F0293 cells were plated and subsequently treated with puromycin (2 ug/ml). Both floater and adherent cell populations were then collected at varying times (t=4, 7, 9, 16, 20, and 24 hours) and analyzed to determine (a) the percent PI^+ cells in the floater population and (b) the fraction of cells which became floaters. […] The fraction of floaters that stained with PI (PI^+ population) increased with time.
# HT29 cells = test: Induction of apoptosis in HT29 cells carrying pVT324; type: cell-based, human; settings: after 48 hours of treatment
# Experimental: Cells that are positive for PI uptake may either be necrotic, or be in the late stages of apoptosis. In order to address specifically the question of whether DNA recovered from cells undergoing apoptosis can serve as a good template for PCR, the following experiment was performed. HT29 cells containing a retroviral construct that constitutively expresses GFP (pVT324) were treated with sulindac sulfide to induce apoptosis. […] Apoptotic cells were counted into PCR tubes and PCR was carried out using primers specific for the amplification of the retroviral GFP construct. Live cells from an untreated culture were used as PCR controls. There was no apparent difference in amplification of the GFP product from apoptotic cells when compared to live cells (FIG. 11). Thus DNA recovered from cells undergoing either necrotic or apoptotic cell death can serve as an effective template for PCR amplification and construction of sublibraries.
# HMEC 96C cells = test: Floater assay with propidium iodide viability, HMEC 96C; type: cell-based, human; settings: for Propidium Iodide Staining / Percent Floaters: HMEC 96C
# Experimental: (§2) A floater assay involving primary human mammary cells (HMECs), immortalized and transformed with a minimum number of genetic elements, was performed as follows. Primary pooled HMECs (Biowhittaker/Clonetics) were immortalized and transformed with two methods: 1) Serial introduction and expression of retroviral constructs encoding SV-40 Lg T Ag, human telomerase catalytic subunit hTERT, and activated V12H-ras (method of Hahn, et al, Nature 400: 464-468, 1999) and 2) serial introduction and expression of constructs encoding HPV-16 E6/E7, hTERT and V12H-ras. The lines are designated 96C and 96A, respectively. The retroviral constructs BABE/neomycin/SV-40 Lg T Ag BABE/LNCX/puromycin/hTERT, LXSN/hygromycin/V-12H-Ras and LXSN/neomycin/HPV-16 E6/E7 were utilized.
# (§3) To determine background floater rates, cells were plated to 20% confluency in three 100 mm dishes (100000 cells/dish) and the number of floaters as a percentage of total cells (adherent+floaters) and the viability of floaters ascertained at two, three and four days post-platin . Viability was assessed by measuring propidium iodide uptake. In addition to untreated controls, a transduction control vector pVT 340 (pCLMFG/GFP) and a positive control BID/MFG vector, a pro-apoptotic protein previously identified in a colorectal carcinoma HT29 negative selection, were utilized. Cells were transduced with 30% (v/v) viral supernatants at 95% and 45% rates, respectively.
# HMEC 96A cells = test: Floater assay with propidium iodide viability, HMEC 96A; type: cell-based, human; settings: for Propidium Iodide Staining / Percent Floaters: HMEC 96A
# Experimental: as §2, §3
molecule,measurement,setting,value
"N.N.[Cl-].[Cl-].[Pt+2] [Cisplatin, cis-platinum (II) diammine dichloride]",ethidium homodimer staining of adherent cell population,"WM35 cells; WM35 adherent cells, Cisplatin experiment",< 10%
same,floater cells stained with ethidium homodimer,"WM35 cells; WM35 floaters, Cisplatin treated",45-50%
same,condensed or fragmented nuclei,"WM35 cells; WM35 floaters, higher concentrations of Cisplatin",40-50%
same,caspase-3 positive cells among PI-minus floater cells,WM35 (melanoma) cells,94.6%
same,ethidium homodimer staining of adherent cell population,"HS294T cells; HS294T adherent cells, Cisplatin experiment",< 10%
same,cells showing condensed or fragmented nuclei,"HS294T cells; HS294T floaters stained with ethidium homodimer, Cisplatin treated",< 20%
same,floater cells stained with ethidium homodimer,"HS294T cells; HS294T floaters, Cisplatin 5-80 μM 4 hours, collected 18-24 hrs later",greater than 50%
CC[C@@]1(O)C(=O)OCc2c1cc1n(c2=O)Cc2cc3ccccc3nc2-1 [camptothecin],cell number relative to untreated control,"T47D cells; 10 nM camptothecin, 5 days",roughly one third that found in the untreated control
same,concentration tolerated without adverse effect on cell viability or division,T47D cells; 5 days,up to 4 nM
same,concentrations at which virtually no cells remained adhered to the plate,T47D cells; 5 days,greater than 50 nM
same,concentrations resulting in a decrease in cell number relative to untreated control,T47D cells; 5 days,greater than 4 nM
same,concentrations with no effect on T47D cell number,T47D cells; 5 days of treatment,1 to 4 nM
CC(C)CC[C@@H](O)[C@](C)(O)[C@H]1CC[C@@]2(O)C3=CC(=O)[C@@H]4C[C@@H](O)[C@@H](O)C[C@]4(C)[C@H]3CC[C@]12C [ponesterone A],increase of fluorescence level versus absence of inducer,[1],increases by approximately thirty fold
COc1ccc(C[C@H](N)C(=O)N[C@H]2[C@@H](O)[C@H](n3cnc4c(N(C)C)ncnc43)O[C@@H]2CO)cc1 [puromycin],time course of detachment,HuVEC 9F0293 cells,the majority of HuVECs detached by the 16-hour time point
same,floater cells in the PI+ gate,HuVEC 9F0293 cells; by 20 hours,nearly all
same,cells that became floaters,HuVEC 9F0293 cells; within 24 hours,90-99%
same,PI− versus PI+ floater cells,"HuVEC 9F0293 cells; 4, 7, and 9 hours",near equal numbers
CSc1ccc(/C=C2/C(C)=C(CC(=O)O)c3cc(F)ccc32)cc1 [sulindac sulfide],cell detachment and apoptotic morphology,HT29 cells,the majority of the cells had detached from the dish and showed typical apoptotic morphology
"BID: positive control BID/MFG vector, a pro-apoptotic protein previously identified in a colorectal carcinoma HT29 negative selection (protein, UniProt P55957 1-195, looked up, expressed from MFG retroviral vector, positive control BID/MFG vector, a pro-apoptotic protein previously identified in a colorectal carcinoma HT29 negative selection) BH3-interacting domain death …: MDCEVNNGSSLRDECITNLLVFGFLQSCSDNSFRRELDALGHELPVLAPQWEGYDELQTDGNRSSHSRLGRIEADSESQEDIIRNIARHLAQVGDSMDRSIPPGLVNGLALQLRNTSRSEEDRNRDLATALEQLLQAYPRDMEKEKTMLVLALLLAKKVASHTPSLLRDVFHTTVNFINQNLRTYVRSLARNGMD",Propidium Iodide Staining,"HMEC 96C cells; Adherent, DAY 3",8.5%
same,Propidium Iodide Staining,"HMEC 96C cells; Adherent, DAY 4",0.5%
same,Percent Floaters,HMEC 96C cells; DAY 2,46%
same,Percent Floaters,HMEC 96C cells; DAY 3,58%
same,Percent Floaters,HMEC 96C cells; DAY 4,7%
same,Propidium Iodide Staining,"HMEC 96C cells; Floaters, DAY 3",81%
same,Propidium Iodide Staining,"HMEC 96C cells; Floaters, DAY 4",70%
same,propidium iodide positive (adherents),"HMEC 96C cells; line 96C, days 3 and 4",0.5-8.5%
same,propidium iodide positive in floaters,"HMEC 96C cells; line 96C, days 3 and 4",70-81%
same,Propidium Iodide Staining,"HMEC 96A cells; Adherent, DAY 3",1.6%
same,Propidium Iodide Staining,"HMEC 96A cells; Adherent, DAY 4",0.4%
same,Percent Floaters,HMEC 96A cells; DAY 2,54%
same,Percent Floaters,HMEC 96A cells; DAY 3,25%
same,Percent Floaters,HMEC 96A cells; DAY 4,8%
same,Propidium Iodide Staining,"HMEC 96A cells; Floaters, DAY 3",72%
same,Propidium Iodide Staining,"HMEC 96A cells; Floaters, DAY 4",45%
same,propidium iodide positive in adherents,"HMEC 96A cells; line 96A, days 3 and 4",0.4-1.6%
same,propidium iodide positive in floaters,"HMEC 96A cells; line 96A, days 3 and 4",45-75%

# From patent publication US20030054389A1, “Methods for identifying agents that induce a cellular phenotype, and compositions thereof” (priority 2001, published 2003)
